In patent publication US8969376B2, “Pyrazolopyrimidine compounds and their use as PDE10 inhibitors” (Mitsubishi Tanabe Pharma Corporation, priority 2010, dated 2015) one finds IC50 data, which are given here for 13 compounds.

One assay has as its target Bovine PDE10A (bPDE10A) (Bos taurus, UniProt A0A3Q1MHJ4). Briefly: Measurement of PDE10 inhibitory activity (PDE assay, radiolabeled nucleotide method), bovine enzyme. It is filed as biochemical. Particulars: PDE10A of bovine (corpus striatum); substrate 3H-cAMP, final 7 nM; room temperature 90 min. An excerpt:
(§1) (1) Bovine PDE10A (bPDE10A) was isolated and prepared from bovine corpus striatum, according to the methods described in the reference Fujishige et al., Eur. J. Biochem., vol. 266, pp. 1118-1127, 1999. Human PDE10A (hPDE10A) was isolated from COS-7 cells transfected with plasmids coding for human PDE10A2, according to the methods described in the reference Kotera et al., Biochem. Biophys. Res. Commun., vol. 261, pp. 551-557, 1999. The enzyme solutions obtained were used for a PDE assay.
(§2) The PDE assay was performed according to a modified method referred to a report of Kotera et al. (Kotera et al., Biochem. Pharmacol., vol. 60, pp. 1333-1341, 2000), by the radiolabeled nucleotide method.
(§3) Specifically, the measurements of the inhibitory activities were carried out in the following method.
(Method) The test compounds were dissolved in dimethyl sulfoxide (DMSO). 2 μL of the compound solution was added to 96 well plate, and the reaction mixture (20 μL of PDE enzyme solution in 50 mM Tris-HCl, pH 8.0, 40 μL of the assay buffer (50 mM Tris-HCl, pH 8.0, 2 mM MgCl2, 0.07% 2-mercaptoethanol, and 0.825 mg/mL bovine serum albumin), and 20 μL of 1 mg/mL snake venom in 50 mM Tris-HCl, pH8.0) was added to the 96 well plate. […] 50 μL of the eluate together with wash eluate with additional 100 μL methanol was collected in another plate and the radioactivity was measured. […]

In another assay the target is Human PDE10A (hPDE10A) (Homo sapiens (Human), UniProt Q9Y233). The experiment in a line: Measurement of PDE10 inhibitory activity (PDE assay, radiolabeled nucleotide method), human enzyme. The following applies: PDE10A of human (PDE10A2 expressed in COS-7 cells); substrate 3H-cAMP, final 7 nM; room temperature 90 min. It is filed as biochemical.
Text: as §1, §2, §3
(Method) The test compounds were dissolved in dimethyl sulfoxide (DMSO). 2 μL of the compound solution was added to 96 well plate, and the reaction mixture (20 μL of PDE enzyme solution in 50 mM Tris-HCl, pH 8.0, 40 μL of the assay buffer (50 mM Tris-HCl, pH 8.0, 2 mM MgCl2, 0.07% 2-mercaptoethanol, and 0.825 mg/mL bovine serum albumin), and 20 μL of 1 mg/mL snake venom in 50 mM Tris-HCl, pH8.0) was added to the 96 well plate. The enzyme reaction was started by adding and mixing with substrate solution of 20 μL containing approximate 35 nM ^3H-cAMP in 50 mM Tris-HCl, pH 8.0. The final concentration of cAMP in the reaction mixtures was 7 nM. The reaction mixtures were incubated at room temperature for 90 min. After incubation, the reaction was stopped by adding 100 μL of methanol and resultant solutions were applied to filter plate containing Dowex (1×8 200-400) and centrifuged. 50 μL of the eluate together with wash eluate with additional 100 μL methanol was collected in another plate and the radioactivity was measured.
(2) The compounds in the Examples below were tested for PDE inhibition using the Method described above.

As usually defined, the IC50 is the midpoint of a concentration-inhibition curve. The low end stands for greater potency, the high end for weaker potency.

Sequence of Human PDE10A (hPDE10A) (Q9Y233 267-1055): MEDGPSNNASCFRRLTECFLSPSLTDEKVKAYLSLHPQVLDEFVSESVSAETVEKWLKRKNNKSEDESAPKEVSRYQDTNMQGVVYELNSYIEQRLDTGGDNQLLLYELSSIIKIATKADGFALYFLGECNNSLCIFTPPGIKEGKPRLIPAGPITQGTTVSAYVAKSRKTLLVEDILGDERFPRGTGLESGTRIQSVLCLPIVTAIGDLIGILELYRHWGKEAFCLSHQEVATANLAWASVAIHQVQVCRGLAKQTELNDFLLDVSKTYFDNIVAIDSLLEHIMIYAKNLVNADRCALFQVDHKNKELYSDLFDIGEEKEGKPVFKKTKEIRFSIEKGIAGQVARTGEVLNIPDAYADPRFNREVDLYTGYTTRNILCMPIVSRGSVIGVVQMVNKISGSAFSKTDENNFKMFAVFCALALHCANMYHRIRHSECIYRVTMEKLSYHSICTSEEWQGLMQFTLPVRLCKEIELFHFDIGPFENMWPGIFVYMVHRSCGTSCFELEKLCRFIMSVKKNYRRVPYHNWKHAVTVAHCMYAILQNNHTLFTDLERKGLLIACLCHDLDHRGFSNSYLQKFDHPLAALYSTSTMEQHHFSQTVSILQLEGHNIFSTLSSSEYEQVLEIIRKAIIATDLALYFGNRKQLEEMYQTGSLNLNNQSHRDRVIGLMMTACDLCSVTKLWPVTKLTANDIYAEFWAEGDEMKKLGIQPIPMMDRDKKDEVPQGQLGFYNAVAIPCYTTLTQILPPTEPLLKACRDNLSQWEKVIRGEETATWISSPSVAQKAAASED
Sequence of Bovine PDE10A (bPDE10A) (A0A3Q1MHJ4 1-1068): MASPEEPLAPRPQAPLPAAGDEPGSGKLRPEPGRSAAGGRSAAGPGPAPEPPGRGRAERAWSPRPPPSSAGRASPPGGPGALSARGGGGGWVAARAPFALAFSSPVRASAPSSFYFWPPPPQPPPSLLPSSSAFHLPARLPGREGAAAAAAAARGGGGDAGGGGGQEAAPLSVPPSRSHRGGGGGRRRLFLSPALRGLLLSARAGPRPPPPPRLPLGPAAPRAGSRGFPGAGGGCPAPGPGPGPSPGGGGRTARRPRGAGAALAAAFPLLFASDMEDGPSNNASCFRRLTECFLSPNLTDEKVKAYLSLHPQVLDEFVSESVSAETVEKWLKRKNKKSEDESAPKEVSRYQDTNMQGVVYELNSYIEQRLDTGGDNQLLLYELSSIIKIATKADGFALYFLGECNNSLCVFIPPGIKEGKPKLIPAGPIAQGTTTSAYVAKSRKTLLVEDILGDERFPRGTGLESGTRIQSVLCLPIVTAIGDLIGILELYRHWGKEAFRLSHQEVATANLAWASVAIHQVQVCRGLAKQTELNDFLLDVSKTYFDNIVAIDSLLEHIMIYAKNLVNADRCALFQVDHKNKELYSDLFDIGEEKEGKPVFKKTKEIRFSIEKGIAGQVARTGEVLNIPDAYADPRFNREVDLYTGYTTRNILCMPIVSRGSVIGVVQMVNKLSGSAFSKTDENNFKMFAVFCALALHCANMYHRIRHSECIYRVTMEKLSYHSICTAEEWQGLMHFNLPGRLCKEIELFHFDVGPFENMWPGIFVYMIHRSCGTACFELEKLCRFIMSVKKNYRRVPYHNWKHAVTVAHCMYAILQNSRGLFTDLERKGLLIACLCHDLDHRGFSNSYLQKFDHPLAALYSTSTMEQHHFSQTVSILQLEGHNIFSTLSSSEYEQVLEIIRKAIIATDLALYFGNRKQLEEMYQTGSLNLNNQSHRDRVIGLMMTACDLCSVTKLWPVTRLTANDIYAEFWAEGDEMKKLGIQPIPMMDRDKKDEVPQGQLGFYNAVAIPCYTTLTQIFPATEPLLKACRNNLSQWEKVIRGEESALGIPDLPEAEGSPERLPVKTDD

On Bovine PDE10A (bPDE10A), `COCCN(CCOC)c1cc(N2CCCC2)nc2cc(-c3nc4cc(C)ccc4nc3C)nn12` [Example 1.050, 2-(3,7-dimethylquinoxalin-2-yl)-N,N-bis(2-methoxyethyl)-5-pyrrolidin-1-ylpyrazolo[1,5-a]pyrimidin-7-amine] displayed a half-maximal inhibitory concentration (IC50) of 0.019 nM.

Consider `Cc1nc2c(nc1-c1cc3nc(N4CCCC4)cc(N[C@H]4CC[C@](C)(O)CC4)n3n1)CCCO2` [Example 1.173, trans-1-methyl-4-{[2-(3-methyl-7,8-dihydro-6H-pyrano[2,3-b]pyrazin-2-yl)-5-pyrrolidin-1-ylpyrazolo[1,5-a]pyrimidin-7-yl]amino}cyclohexanol], for which the IC50 against Human PDE10A (hPDE10A) was 0.27 nM.

`Cc1nc2ccc(F)cc2nc1-c1cc2nc(N3CC[C@H](F)C3)cc(N[C@H]3CC[C@@](C)(O)CC3)n2n1` [Example 1.175, cis-4-({2-(7-fluoro-3-methylquinoxalin-2-yl)-5-[(3R)-3-fluoropyrrolidin-1-yl]pyrazolo[1,5-a]pyrimidin-7-yl}amino)-1-methylcyclohexanol] yielded a half-inhibitory concentration (IC50) at Human PDE10A (hPDE10A) of 0.12 nM.

`CCCc1cnc(C)c(-c2cc3nc(N4CCCC4)cc(N(C)C4CCOCC4)n3n2)n1` [Example 1.181, N-methyl-2-(3-methyl-6-propylpyrazin-2-yl)-5-pyrrolidin-1-yl-N-(tetrahydro-2H-pyran-4-yl)pyrazolo[1,5-a]pyrimidin-7-amine] showed a concentration for half-maximal inhibition (IC50) against Human PDE10A (hPDE10A) of 0.64 nM.

`Cc1cn2nccc2nc1-c1cc2nc(N3CCCC3)cc(NCC(C)(C)O)n2n1` [Example 1.184, 2-methyl-1-[(6′-methyl-5-pyrrolidin-1-yl-2,5′-bipyrazolo[1,5-a]pyrimidin-7-yl)amino]propan-2-ol] registered an IC50 against Human PDE10A (hPDE10A) of 2.5 nM.

Regarding `Cc1nc(C)c(-c2cc3nc(N4CCCC4)cc(NCC(C)(C)O)n3n2)nc1CC(C)C` [Example 1.187, 1-{[2-(6-isobutyl-3,5-dimethylpyrazin-2-yl)-5-pyrrolidin-1-ylpyrazolo[1,5-a]pyrimidin-7-yl]amino}-2-methylpropan-2-ol], the half-maximal inhibitory concentration (IC50) at Human PDE10A (hPDE10A) is 0.6 nM.

For the compound `Cc1nc(C)c(C2CC2)nc1-c1cc2nc(N3CCCC3)cc(NCC(C)(C)O)n2n1` [Example 1.189, 1-{[2-(6-cyclopropyl-3,5-dimethylpyrazin-2-yl)-5-pyrrolidin-1-ylpyrazolo[1,5-a]pyrimidin-7-yl]amino}-2-methylpropan-2-ol], 0.18 nM corresponded to half-maximal inhibition on Human PDE10A (hPDE10A) (IC50).

The compound `Cc1nc(C)c(C2CC2)nc1-c1cc2nc(N3CCCC3)cc(NC3CCOCC3)n2n1` [Example 1.190, 2-(6-cyclopropyl-3,5-dimethylpyrazin-2-yl)-5-pyrrolidin-1-yl-N-(tetrahydro-2H-pyran-4-yl)pyrazolo[1,5-a]pyrimidin-7-amine] registered an IC50 against Human PDE10A (hPDE10A) of 0.69 nM.

At Human PDE10A (hPDE10A), `Cc1nc2c(nc1-c1cc3nc(N4CCCC4)cc(NC4CCOCC4)n3n1)CCCO2` [Example 1.197, 2-(3-methyl-7,8-dihydro-6H-pyrano[2,3-b]pyrazin-2-yl)-5-pyrrolidin-1-yl-N-(tetrahydro-2H-pyran-4-yl)pyrazolo[1,5-a]pyrimidin-7-amine] displayed an IC50 of 2.5 nM.

In turn, `Cc1nc2c(nc1-c1cc3nc(N4CCCC4)cc(NCC(C)(C)O)n3n1)CCCO2` [Example 1.198, 2-methyl-1-{[2-(3-methyl-7,8-dihydro-6H-pyrano[2,3-b]pyrazin-2-yl)-5-pyrrolidin-1-ylpyrazolo[1,5-a]pyrimidin-7-yl]amino}propan-2-ol] returned a concentration for half-maximal inhibition (IC50) at Human PDE10A (hPDE10A) of 0.82 nM.

On Human PDE10A (hPDE10A), `CO[C@H]1CC[C@H](Nc2cc(N3CCCC3)nc3cc(-c4nc5c(nc4C)OCCC5)nn23)CC1` [Example 1.199, N-(trans-4-methoxycyclohexyl)-2-(3-methyl-7,8-dihydro-6H-pyrano[2,3-b]pyrazin-2-yl)-5-pyrrolidin-1-ylpyrazolo[1,5-a]pyrimidin-7-amine] registered a half-inhibitory concentration (IC50) of 0.89 nM.

`Cc1nc2ccncc2nc1-c1cc2nc(N3CCCC3)cc(NC3CCOCC3)n2n1` [Example 5.001, 2-(2-methylpyrido[3,4-b]pyrazin-3-yl)-5-pyrrodin-1-yl-N-(tetrahydro-2H-pyran-4-yl)pyrazolo[1,5-a]pyrimidin-7-amine] gave an IC50 on Human PDE10A (hPDE10A) of 0.15 nM.

On to `Cc1nc2cnccc2nc1-c1cc2nc(N3CCCC3)cc(NC3CCOCC3)n2n1` [Example 5.002, 2-(3-methylpyrido[3,4-b]pyrazin-2-yl)-5-pyrrolidin-1-yl-N-(tetrahydro-2H-pyran-4-yl)pyrazolo[1,5-a]pyrimidin-7-amine], for which it took 0.28 nM to reach half-maximal inhibition on Human PDE10A (hPDE10A) (IC50).
